Measurements as given in the kinase profiling compilation of Christmann-Franck et al. (2016).

Legend:
Assay in all cases: radiometric filter-binding kinase assay
CSNK1D (human) = CSNK1D (human) (UniProt P48730)
IKBKB (human) = IKBKB (human) (UniProt O14920)
NEK6 (human) = NEK6 (human) (UniProt Q9HC98)
EPHB1 (human) = EPHB1 (human) (UniProt P54762)
MKNK2 (human) = MKNK2 (human) (UniProt Q9HBH9)
NEK2 (human) = NEK2 (human) (UniProt P51955)
PLK1 (human) = PLK1 (human) (UniProt P53350)
PRKAA1 or PRKAA2 (rat) = settings: accession and sequence are those of the human protein
MAPK14 (human) = MAPK14 (human) (UniProt Q16539)
RPS6KA5 KD1 KD2 (human) = RPS6KA5 KD1 KD2 (human) (UniProt O75582)
RIPK2 (human) = RIPK2 (human) (UniProt O43353)
[1] = system: RPS6KB1 (human), P23443 [T412E]
PAK7 (human) = PAK7 (human) (UniProt Q9P286)
MAPK1 (human) = MAPK1 (human) (UniProt P28482)
MAPKAPK3 (human) = MAPKAPK3 (human) (UniProt Q16644)
CSK (human) = CSK (human) (UniProt P41240)
RPS6KA1 KD1 KD2 (human) = RPS6KA1 KD1 KD2 (human) (UniProt Q15418)
TTK (human) = TTK (human) (UniProt P33981)
SYK (human) = SYK (human) (UniProt P43405)
PIM2 (human) = PIM2 (human) (UniProt Q9P1W9)
FLT1 (human) = FLT1 (human) (UniProt P17948)
MAPK15 (human) = MAPK15 (human) (UniProt Q8TD08)
EPHA4 (human) = EPHA4 (human) (UniProt P54764)
RPS6KA3 KD1 KD2 (human) = RPS6KA3 KD1 KD2 (human) (UniProt P51812)
INSRR (human) = INSRR (human) (UniProt P14616)
[2] = system: AKT2 (human), P31751 [S474D]
SRC (human) = SRC (human) (UniProt P12931)
CHEK2 (human) = CHEK2 (human) (UniProt O96017)
BTK (human) = BTK (human) (UniProt Q06187)
PRKACA (human) = PRKACA (human) (UniProt P17612)
CDK2 CCNA2 (human) = CDK2 CCNA2 (human) (UniProt P20248+P24941)
MAPK3 (human) = MAPK3 (human) (UniProt P27361)
MAP2K1 (human) = MAP2K1 (human) (UniProt Q02750)
EPHB4 (human) = EPHB4 (human) (UniProt P54760)
IKBKE (human) = IKBKE (human) (UniProt Q14164)
Sequence of IKBKE (human) (Q14164 whole entry, looked up): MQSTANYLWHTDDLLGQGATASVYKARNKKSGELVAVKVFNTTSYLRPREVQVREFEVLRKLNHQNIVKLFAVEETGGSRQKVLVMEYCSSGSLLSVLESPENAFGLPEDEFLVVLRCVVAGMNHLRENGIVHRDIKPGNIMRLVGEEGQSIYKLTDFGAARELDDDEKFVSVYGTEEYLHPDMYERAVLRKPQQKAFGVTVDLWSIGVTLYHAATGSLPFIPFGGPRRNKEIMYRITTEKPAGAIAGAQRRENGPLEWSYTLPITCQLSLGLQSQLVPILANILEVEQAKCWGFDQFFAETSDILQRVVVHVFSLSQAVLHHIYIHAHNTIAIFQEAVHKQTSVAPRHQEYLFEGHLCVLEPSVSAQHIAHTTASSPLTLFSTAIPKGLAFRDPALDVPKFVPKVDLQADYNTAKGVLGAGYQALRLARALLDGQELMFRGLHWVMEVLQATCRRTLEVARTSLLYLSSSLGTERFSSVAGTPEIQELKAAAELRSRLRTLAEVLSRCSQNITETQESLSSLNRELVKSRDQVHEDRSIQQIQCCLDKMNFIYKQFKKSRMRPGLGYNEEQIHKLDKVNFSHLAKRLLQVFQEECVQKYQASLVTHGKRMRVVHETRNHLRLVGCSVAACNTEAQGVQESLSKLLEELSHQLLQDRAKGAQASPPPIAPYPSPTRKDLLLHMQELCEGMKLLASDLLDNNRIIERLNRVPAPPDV

Sequence of SRC (human) (P12931 whole entry, looked up): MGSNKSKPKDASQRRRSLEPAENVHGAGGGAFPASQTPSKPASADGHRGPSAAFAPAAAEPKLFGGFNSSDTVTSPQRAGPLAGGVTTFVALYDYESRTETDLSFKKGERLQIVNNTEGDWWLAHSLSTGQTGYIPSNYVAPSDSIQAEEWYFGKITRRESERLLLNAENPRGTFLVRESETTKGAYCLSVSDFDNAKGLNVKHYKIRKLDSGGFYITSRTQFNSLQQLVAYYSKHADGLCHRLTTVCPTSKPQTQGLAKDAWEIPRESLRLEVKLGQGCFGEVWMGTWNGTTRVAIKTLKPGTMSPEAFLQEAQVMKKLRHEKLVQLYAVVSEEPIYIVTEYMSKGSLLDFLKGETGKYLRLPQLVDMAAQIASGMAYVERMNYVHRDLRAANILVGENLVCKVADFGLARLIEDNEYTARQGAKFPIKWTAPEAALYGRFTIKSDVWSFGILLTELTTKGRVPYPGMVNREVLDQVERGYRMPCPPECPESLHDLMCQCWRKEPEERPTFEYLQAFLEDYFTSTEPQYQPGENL
Sequence of PAK7 (human) (Q9P286 whole entry, looked up): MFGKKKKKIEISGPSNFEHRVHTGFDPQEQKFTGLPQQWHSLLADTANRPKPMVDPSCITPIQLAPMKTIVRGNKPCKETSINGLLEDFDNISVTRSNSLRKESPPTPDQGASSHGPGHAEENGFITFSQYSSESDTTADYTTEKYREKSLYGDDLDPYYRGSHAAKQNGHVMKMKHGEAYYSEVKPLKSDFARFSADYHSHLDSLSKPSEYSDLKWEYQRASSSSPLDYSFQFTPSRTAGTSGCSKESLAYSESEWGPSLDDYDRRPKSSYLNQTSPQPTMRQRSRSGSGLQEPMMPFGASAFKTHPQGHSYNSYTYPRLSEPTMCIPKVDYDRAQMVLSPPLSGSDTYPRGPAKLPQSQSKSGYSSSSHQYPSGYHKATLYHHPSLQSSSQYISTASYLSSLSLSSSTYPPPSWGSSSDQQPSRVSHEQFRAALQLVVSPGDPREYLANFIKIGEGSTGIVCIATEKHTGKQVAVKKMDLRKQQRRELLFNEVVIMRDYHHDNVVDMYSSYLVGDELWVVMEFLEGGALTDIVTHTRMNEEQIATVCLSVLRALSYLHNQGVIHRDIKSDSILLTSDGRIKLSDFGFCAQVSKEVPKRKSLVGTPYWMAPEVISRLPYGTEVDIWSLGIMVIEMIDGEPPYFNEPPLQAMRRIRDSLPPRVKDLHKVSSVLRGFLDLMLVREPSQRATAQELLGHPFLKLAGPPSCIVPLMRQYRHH
Sequence of BTK (human) (Q06187 whole entry, looked up): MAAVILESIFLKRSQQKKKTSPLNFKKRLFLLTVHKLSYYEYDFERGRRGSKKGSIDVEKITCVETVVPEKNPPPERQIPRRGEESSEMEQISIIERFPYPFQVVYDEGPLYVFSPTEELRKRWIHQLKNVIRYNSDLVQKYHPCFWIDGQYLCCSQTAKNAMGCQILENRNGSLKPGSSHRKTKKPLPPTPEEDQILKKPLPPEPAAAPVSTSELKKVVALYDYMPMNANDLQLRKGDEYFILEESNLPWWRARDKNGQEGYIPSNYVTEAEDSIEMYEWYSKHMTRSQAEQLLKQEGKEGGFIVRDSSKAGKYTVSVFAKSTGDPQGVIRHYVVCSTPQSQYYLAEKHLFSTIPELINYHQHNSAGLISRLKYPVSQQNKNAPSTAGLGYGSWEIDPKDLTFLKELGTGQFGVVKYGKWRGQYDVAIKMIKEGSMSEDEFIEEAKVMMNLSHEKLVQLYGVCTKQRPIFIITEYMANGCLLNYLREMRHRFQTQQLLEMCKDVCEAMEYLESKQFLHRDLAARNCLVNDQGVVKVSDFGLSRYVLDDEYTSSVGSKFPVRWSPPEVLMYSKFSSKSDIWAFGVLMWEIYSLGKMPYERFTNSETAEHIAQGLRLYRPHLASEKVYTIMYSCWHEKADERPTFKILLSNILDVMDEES
Sequence of MAPK1 (human) (P28482 whole entry, looked up): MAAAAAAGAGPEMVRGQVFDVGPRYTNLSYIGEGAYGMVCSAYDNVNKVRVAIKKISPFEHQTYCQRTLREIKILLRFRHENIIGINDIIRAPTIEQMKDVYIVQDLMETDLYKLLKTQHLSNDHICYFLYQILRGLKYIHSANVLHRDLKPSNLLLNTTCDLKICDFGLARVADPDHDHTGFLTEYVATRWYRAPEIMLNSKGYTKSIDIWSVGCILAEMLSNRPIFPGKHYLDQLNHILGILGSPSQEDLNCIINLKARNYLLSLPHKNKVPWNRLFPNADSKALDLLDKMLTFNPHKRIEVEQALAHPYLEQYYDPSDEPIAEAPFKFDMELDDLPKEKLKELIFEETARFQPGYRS
Sequence of AKT2 (human), P31751 [S474D] (P31751 whole entry S474D, looked up): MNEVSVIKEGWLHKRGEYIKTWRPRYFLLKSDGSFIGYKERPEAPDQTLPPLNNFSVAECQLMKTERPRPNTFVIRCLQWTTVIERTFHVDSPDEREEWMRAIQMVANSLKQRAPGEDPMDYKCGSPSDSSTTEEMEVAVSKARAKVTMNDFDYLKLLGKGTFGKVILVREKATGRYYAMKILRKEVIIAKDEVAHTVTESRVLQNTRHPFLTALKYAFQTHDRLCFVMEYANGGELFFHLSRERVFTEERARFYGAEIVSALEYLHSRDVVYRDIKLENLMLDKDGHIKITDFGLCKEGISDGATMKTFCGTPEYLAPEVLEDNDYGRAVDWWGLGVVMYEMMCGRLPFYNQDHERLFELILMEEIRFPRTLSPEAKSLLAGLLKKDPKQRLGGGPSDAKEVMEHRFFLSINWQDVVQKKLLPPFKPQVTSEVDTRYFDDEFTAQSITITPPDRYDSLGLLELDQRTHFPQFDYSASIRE
Sequence of TTK (human) (P33981 whole entry, looked up): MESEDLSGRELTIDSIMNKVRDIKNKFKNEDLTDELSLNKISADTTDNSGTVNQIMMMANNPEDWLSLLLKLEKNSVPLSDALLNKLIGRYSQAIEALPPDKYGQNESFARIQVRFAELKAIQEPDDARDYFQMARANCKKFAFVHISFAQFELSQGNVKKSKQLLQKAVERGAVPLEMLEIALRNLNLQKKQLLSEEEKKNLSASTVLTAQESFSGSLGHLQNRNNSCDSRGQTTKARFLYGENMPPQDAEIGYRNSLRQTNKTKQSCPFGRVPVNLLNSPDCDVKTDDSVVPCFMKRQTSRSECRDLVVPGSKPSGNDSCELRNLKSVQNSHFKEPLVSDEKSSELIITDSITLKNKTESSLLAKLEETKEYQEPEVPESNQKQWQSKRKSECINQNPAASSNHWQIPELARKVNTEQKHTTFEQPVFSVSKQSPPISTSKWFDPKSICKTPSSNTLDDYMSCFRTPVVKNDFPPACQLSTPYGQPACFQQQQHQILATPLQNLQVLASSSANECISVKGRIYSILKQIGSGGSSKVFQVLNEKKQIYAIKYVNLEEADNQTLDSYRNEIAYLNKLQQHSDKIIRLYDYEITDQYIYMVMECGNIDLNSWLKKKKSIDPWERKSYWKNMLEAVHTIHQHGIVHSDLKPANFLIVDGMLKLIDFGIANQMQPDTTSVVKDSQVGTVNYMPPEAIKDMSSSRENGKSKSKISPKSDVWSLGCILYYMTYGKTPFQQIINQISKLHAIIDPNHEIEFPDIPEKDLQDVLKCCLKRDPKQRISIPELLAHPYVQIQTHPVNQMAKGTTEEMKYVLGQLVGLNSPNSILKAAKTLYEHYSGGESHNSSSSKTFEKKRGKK
Sequence of NEK2 (human) (P51955 whole entry, looked up): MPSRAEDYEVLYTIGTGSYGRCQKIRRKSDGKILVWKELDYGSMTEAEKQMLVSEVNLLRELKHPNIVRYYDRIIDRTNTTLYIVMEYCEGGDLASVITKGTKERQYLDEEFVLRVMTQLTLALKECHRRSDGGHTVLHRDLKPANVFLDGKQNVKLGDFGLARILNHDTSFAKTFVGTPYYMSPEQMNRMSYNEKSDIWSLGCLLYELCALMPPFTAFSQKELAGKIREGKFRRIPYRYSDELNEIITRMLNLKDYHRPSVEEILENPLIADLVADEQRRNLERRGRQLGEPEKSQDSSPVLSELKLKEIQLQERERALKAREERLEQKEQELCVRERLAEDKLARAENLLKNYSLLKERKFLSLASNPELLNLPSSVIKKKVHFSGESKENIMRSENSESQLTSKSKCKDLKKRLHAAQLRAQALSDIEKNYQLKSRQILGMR

SMILES: O=C(N[C@@H](COc1ccc2[nH]c(=O)[nH]c2c1)c1ccccc1)c1cccn(Cc2ccc(F)c(F)c2)c1=O
- residual activity (CSNK1D (human); compound 0.1 µM): 103%
- residual activity (CSNK1D (human); compound 1.0 µM): 110%
- residual activity (CSNK1D (human); compound 10.0 µM): 113%
- residual activity (IKBKB (human); compound 0.1 µM): 102%
- residual activity (IKBKB (human); compound 1.0 µM): 99%
- residual activity (IKBKB (human); compound 10.0 µM): 99%
- residual activity (NEK6 (human); compound 0.1 µM): 104%
- residual activity (NEK6 (human); compound 1.0 µM): 100%
- residual activity (NEK6 (human); compound 10.0 µM): 98%
- residual activity (EPHB1 (human); compound 0.1 µM): 87%
- residual activity (EPHB1 (human); compound 1.0 µM): 88%
- residual activity (EPHB1 (human); compound 10.0 µM): 90%
- residual activity (MKNK2 (human); compound 0.1 µM): 117%
- residual activity (MKNK2 (human); compound 10.0 µM): 112%
- residual activity (NEK2 (human); compound 0.1 µM): 107%
- residual activity (NEK2 (human); compound 1.0 µM): 97%
- residual activity (NEK2 (human); compound 10.0 µM): 96%
- residual activity (PLK1 (human); compound 0.1 µM): 118%
- residual activity (PLK1 (human); compound 1.0 µM): 107%
- residual activity (PLK1 (human); compound 10.0 µM): 121%
- residual activity (PRKAA1 or PRKAA2 (rat); compound 0.1 µM): 97%
- residual activity (PRKAA1 or PRKAA2 (rat); compound 1.0 µM): 99%
- residual activity (PRKAA1 or PRKAA2 (rat); compound 10.0 µM): 99%
- residual activity (MAPK14 (human); compound 0.1 µM): 114%
- residual activity (MAPK14 (human); compound 1.0 µM): 121%
- residual activity (MAPK14 (human); compound 10.0 µM): 114%
- residual activity (RPS6KA5 KD1 KD2 (human); compound 0.1 µM): 101%
- residual activity (RPS6KA5 KD1 KD2 (human); compound 1.0 µM): 104%
- residual activity (RPS6KA5 KD1 KD2 (human); compound 10.0 µM): 106%
- residual activity (RIPK2 (human); compound 0.1 µM): 102%
- residual activity (RIPK2 (human); compound 1.0 µM): 105%
- residual activity (RIPK2 (human); compound 10.0 µM): 98%
- residual activity ([1]; compound 0.1 µM): 103%
- residual activity ([1]; compound 1.0 µM): 97%
- residual activity ([1]; compound 10.0 µM): 98%
- residual activity (PAK7 (human); compound 0.1 µM): 104%
- residual activity (PAK7 (human); compound 1.0 µM): 92%
- residual activity (PAK7 (human); compound 10.0 µM): 64%
- residual activity (MAPK1 (human); compound 0.1 µM): 102%
- residual activity (MAPK1 (human); compound 1.0 µM): 100%
- residual activity (MAPK1 (human); compound 10.0 µM): 101%
- residual activity (MAPKAPK3 (human); compound 0.1 µM): 116%
- residual activity (MAPKAPK3 (human); compound 1.0 µM): 109%
- residual activity (MAPKAPK3 (human); compound 10.0 µM): 74%
- residual activity (CSK (human); compound 0.1 µM): 109%
- residual activity (CSK (human); compound 1.0 µM): 98%
- residual activity (CSK (human); compound 10.0 µM): 101%
- residual activity (RPS6KA1 KD1 KD2 (human); compound 0.1 µM): 95%
- residual activity (RPS6KA1 KD1 KD2 (human); compound 1.0 µM): 93%
- residual activity (RPS6KA1 KD1 KD2 (human); compound 10.0 µM): 114%
- residual activity (TTK (human); compound 0.1 µM): 99%
- residual activity (TTK (human); compound 1.0 µM): 100%
- residual activity (TTK (human); compound 10.0 µM): 95%
- residual activity (SYK (human); compound 0.1 µM): 99%
- residual activity (SYK (human); compound 1.0 µM): 88%
- residual activity (SYK (human); compound 10.0 µM): 82%
- residual activity (PIM2 (human); compound 0.1 µM): 107%
- residual activity (PIM2 (human); compound 1.0 µM): 105%
- residual activity (PIM2 (human); compound 10.0 µM): 85%
- residual activity (FLT1 (human); compound 0.1 µM): 106%
- residual activity (FLT1 (human); compound 1.0 µM): 100%
- residual activity (MAPK15 (human); compound 0.1 µM): 92%
- residual activity (MAPK15 (human); compound 1.0 µM): 89%
- residual activity (MAPK15 (human); compound 10.0 µM): 94%
- residual activity (EPHA4 (human); compound 0.1 µM): 95%
- residual activity (EPHA4 (human); compound 1.0 µM): 113%
- residual activity (EPHA4 (human); compound 10.0 µM): 107%
- residual activity (RPS6KA3 KD1 KD2 (human); compound 0.1 µM): 102%
- residual activity (RPS6KA3 KD1 KD2 (human); compound 1.0 µM): 98%
- residual activity (RPS6KA3 KD1 KD2 (human); compound 10.0 µM): 85%
- residual activity (INSRR (human); compound 0.1 µM): 101%
- residual activity (INSRR (human); compound 1.0 µM): 114%
- residual activity (INSRR (human); compound 10.0 µM): 105%
- residual activity ([2]; compound 0.1 µM): 98%
- residual activity ([2]; compound 1.0 µM): 96%
- residual activity ([2]; compound 10.0 µM): 77%
- residual activity (SRC (human); compound 0.1 µM): 103%
- residual activity (SRC (human); compound 1.0 µM): 100%
- residual activity (SRC (human); compound 10.0 µM): 75%
- residual activity (CHEK2 (human); compound 0.1 µM): 102%
- residual activity (CHEK2 (human); compound 1.0 µM): 106%
- residual activity (CHEK2 (human); compound 10.0 µM): 100%
- residual activity (BTK (human); compound 0.1 µM): 109%
- residual activity (BTK (human); compound 1.0 µM): 108%
- residual activity (BTK (human); compound 10.0 µM): 110%
- residual activity (PRKACA (human); compound 0.1 µM): 105%
- residual activity (PRKACA (human); compound 1.0 µM): 112%
- residual activity (PRKACA (human); compound 10.0 µM): 111%
- residual activity (CDK2 CCNA2 (human); compound 0.1 µM): 90%
- residual activity (CDK2 CCNA2 (human); compound 1.0 µM): 91%
- residual activity (CDK2 CCNA2 (human); compound 10.0 µM): 95%
- residual activity (MAPK3 (human); compound 0.1 µM): 93%
- residual activity (MAPK3 (human); compound 1.0 µM): 101%
- residual activity (MAPK3 (human); compound 10.0 µM): 95%
- residual activity (MAP2K1 (human); compound 0.1 µM): 100%
- residual activity (MAP2K1 (human); compound 10.0 µM): 95%
- residual activity (EPHB4 (human); compound 1.0 µM): 85%
- residual activity (EPHB4 (human); compound 10.0 µM): 87%
- residual activity (IKBKE (human); compound 0.1 µM): 103%
- residual activity (IKBKE (human); compound 1.0 µM): 109%
- residual activity (IKBKE (human); compound 10.0 µM): 95%
